Measurements from article PMC8220418, “A fragment-based approach to assess the ligandability of ArgB, ArgC, ArgD and ArgF in the L-arginine biosynthetic pathway of Mycobacterium tuberculosis” (Computational and Structural Biotechnology Journal, 2021).

system: M. tuberculosis ΔargB; type: cell-based, Mycobacterium tuberculosis

Structure (SMILES)	Inhibitory activity on growth with arginine present
O=c1cc(C(F)(F)F)[nH]c2c(C(F)(F)F)cccc12 [NMR711, 2,8-bis(trifluoromethyl)-1H-quinolin-4-one]	inhibitory
NC(N)=NOCC[C@H](N)C(=O)O [L-canavanine, reference compound]	no inhibitory activity
O=c1cc[nH]c2c(C(F)(F)F)cccc12 [NMR446, 8-(trifluoromethyl)-1H-quinolin-4-one]	no inhibitory activity
